Experimental data as given in PMC5618334, “Hydrocarbon constrained peptides – understanding preorganisation and binding affinity” (Chemical Science, 2016).
Where a SMILES comes first, the peptide text is derived from it. [ ]: non-standard residue; d: D form. Nle = CCCC[C@H](N)C(=O)O

Experiments:
Type in all cases: binding
[1] = biological target: T1, Bcl-xL/BODIPY-BAK (Homo sapiens, UniProt Q07817, DEL26-81); experiment: Fluorescence anisotropy competition assay, inhibition of Bcl-xL/BODIPY-BAK interaction
T1 construct: pET28a His-SUMO Bcl-xL (1-198, missing 26-81); His-SUMO (N, cleaved yes); made in house; host or cells: E. coli Rosetta 2
Experimental: (§1) To profile the binding behaviour of the constrained peptides we tested them in both competition displacement assays and direct binding assays. […] Of particular interest was the potential for the introduction of a constraint to have differential effects on protein specificity/selectivity. […] We next tested the constrained peptides in inhibition assays (Fig. 3a and b and Table 2). […]
(§2) constructs were over-expressed in the E. coli strain Rosetta 2. Cells were resuspended in 50mM TRIS pH 8.0, 500mM NaCl, 15mM Imidazole and lysed by sonication. The clarified lysate was applied to a 5ml HisTrap column equilibrated with 50mM TRIS pH 8.0, 500mM NaCl, 15mM Imidazole. The HisTrap was then washed with 10 CV of 50mM TRIS pH 8.0, 500mM NaCl, 15mM Imidazole followed by 10 CV 50mM TRIS pH 8.0, 500mM NaCl, 25mM Imidazole. The fusion proteins were eluted in 50mM TRIS pH 8.0, 500mM NaCl, 300mM Imidazole. TheHis-SUMO tag was removed in overnight in dialysis into 50mM TRIS pH 8.0, 250mM NaCl in the presence of Smt3 protease, Ulp1, overnight at 4°C. Uncleaved material and His-SUMO were removed by reapplication of the sample to a HisTrap in 50mM TRIS pH 8.0, 250mM NaCl and the flow through containing Mcl- […]
(§3) The proteins were then filtered before further purification on a Superdex 75 (GE […]
(§4) proteins were concentrated and stored at -80°C.
(§5) The assays were performed as detailed in 10, 11.
(§6) The buffers used for fluorescence anisotropy were either phosphate buffer (40 mM sodium phosphate, 200 mM sodium chloride, 0.02 mg ml-1 bovine serum albumin, pH 7.50) or Tris buffer (50 mM Tris, 140 mM sodium chloride, pH 7.50). Phosphate buffer was used for all competition assays […]
(§7) Assays were run in 96 or 384 well Optiplates and were scanned using a Perkin Elmer EnVisionTM 2103 MultiLabel plate reader. Fluorescein labelled peptides used an excitation and emission wavelength of 480 (30) nm and 535 (40) nm respectively (dichroic mirror 505 nm) whilst BODIPY labelled peptides used an excitation and emission wavelength of 531 (25) nm and 595 (60) nm respectively (dichroic mirror 555 nm), […]
(§8) Plates were read after 1 h […]
(§9) respectively. Plates were read after 1 h. […]
(§10) Processing of fluorescence anisotropy data
(§11) Fluorescence anisotropy data was processed using Microsoft Excel to calculate intensity, anisotropy […]
(§12) b (λ(rmax − r) + r − rmin) r = anisotropy, I = total intensity, P = perpendicular intensity, S = parallel intensity, Lb = fraction ligand bound, λ = Ibound/Iunbound , G = 1= instrumental factor. […]
(§13) the calculation of IC50 and EC50) or to the Kd model for the extraction of Kd values:
(§14) Where for the logisitic model; y = r = anisotropy, xo = mid-point of the curve between the rmax and rmin […]
(§15) For the Kd model; y = Lb*[FL], K = Kd, [FL] = Concentration of fluorescent ligand.

[2] = biological target: T2, Mcl-1/FITC-NOXA-B (Homo sapiens, UniProt Q07820); experiment: Fluorescence anisotropy competition assay, inhibition of Mcl-1/FITC-NOXA-B interaction
T2 construct: His-SUMO (N, cleaved yes); made in house; host or cells: E. coli Rosetta 2
Experimental: as §1, §2, §3, §4, §5, §6, §7, §8, §9, §10, §11, §12, §13, §14, §15

[3] = biological target: T3, Bcl-xL (Homo sapiens, UniProt Q07817, DEL26-81); experiment: Surface plasmon resonance (SPR), peptides flowed over immobilised His-SUMO Bcl-xL; settings: SPR Biacore 3000, His-SUMO Bcl-xL on Ni-NTA chip, PBS with 0.01 mg/mL BSA, 0.1% Tween 20, 1:1 model, average of at least 3 data sets; for Kd: read-out: Bcl-xL K d; for koff: read-out: Bcl-xL k off; for kon: read-out: Bcl-xL k on
T3 construct: pET28a His-SUMO Bcl-xL (1-198, missing 26-81); made in house; host or cells: E. coli Rosetta 2
Experimental: To investigate how the hydrocarbon constraint affects binding kinetics, we established a surface plasmon resonance (SPR) based assay. […] BID-WT and BID-MM were then flowed over the immobilised protein. […] These experiments were repeated for the BIM series of peptides.
SPR of BIM series of peptides
The binding kinetics and affinities were analysed by SPR (Biacore 3000). […]
immobilised on an Ni-NTA chip non-covalently in PBS with 0.01mg/ML BSA and 0.1% Tween 20 […]
(Running buffer). […] For the […]
the peptides were diluted into running buffer. Experiments were run at 40ul/min in running buffer.
20 minute dissociation period. The binding kinetic parameters were evaluated with BIA-Evaluation software (BIAcore 3000) in which all data sets were fit to a simple 1:1 (Langmuir) binding model. […]
(1 picture or pasted object on this page, not shown here)

T3 sequence (Q07817 with tags, fused parts or gaps DEL26-81): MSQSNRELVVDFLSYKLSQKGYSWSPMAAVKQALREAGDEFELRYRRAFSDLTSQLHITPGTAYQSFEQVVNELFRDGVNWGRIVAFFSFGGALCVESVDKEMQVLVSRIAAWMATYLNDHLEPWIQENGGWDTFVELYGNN
T1 sequence (Q07817 with tags, fused parts or gaps DEL26-81): as above
T2 sequence (Q07820 172-327): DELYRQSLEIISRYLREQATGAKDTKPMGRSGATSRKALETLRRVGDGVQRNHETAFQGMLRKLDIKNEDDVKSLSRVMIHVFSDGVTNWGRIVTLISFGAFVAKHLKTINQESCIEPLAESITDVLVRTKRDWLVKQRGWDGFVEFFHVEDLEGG

| IC50 [1] [nM] | IC50 [2] [nM] | Kd [3] [nM] | koff [3] [s⁻¹] | kon [3] [M⁻¹ s⁻¹] | SMILES |
| --- | --- | --- | --- | --- | --- |
| 1140 ± 40 | 800 ± 70 | 178 ± 52 | 0.003 | 17500 | CCCC[C@H](NC(=O)[C@]1(C)CCCC=CCCC[C@](C)(NC(=O)[C@H](C)NC(=O)[C@H](CC(C)C)NC(=O)[C@H](Cc2c[nH]cn2)NC(=O)[C@H](CCCNC(=N)N)NC(=O)[C@H](C)NC(=O)[C@@H](NC(=O)[C@H](CC(N)=O)NC(=O)[C@H](CCCNC(=N)N)NC(=O)[C@@H](NC(=O)[C@@H](NC(=O)[C@H](CC(=O)O)NC(=O)[C@H](CCC(=O)O)NC(C)=O)[C@@H](C)CC)[C@@H](C)CC)[C@@H](C)CC)C(=O)N[C@@H](C(C)C)C(=O)NCC(=O)N[C@@H](CC(=O)O)C(=O)N1)C(=O)N[C@@H](CC(=O)O)C(=O)N[C@@H](CCCNC(=N)N)C(=O)N[C@@H](CO)C(=O)N[C@H](C(=O)N[C@@H](Cc1c[nH]c2ccccc12)C(N)=O)[C@@H](C)CC [BID-DM] |
| 620 ± 20 | 1600 ± 120 | 107 ± 29 | 0.003 | 31000 | CCCC[C@H](NC(=O)[C@@H]1CCC/C=C\CCC[C@H](NC(=O)[C@H](C)NC(=O)[C@H](CC(C)C)NC(=O)[C@H](Cc2c[nH]cn2)NC(=O)[C@H](CCCNC(=N)N)NC(=O)[C@H](C)NC(=O)[C@@H](NC(=O)[C@H](CC(N)=O)NC(=O)[C@H](CCCNC(=N)N)NC(=O)[C@@H](NC(=O)[C@@H](NC(=O)[C@H](CC(=O)O)NC(=O)[C@H](CCC(=O)O)NC(C)=O)[C@@H](C)CC)[C@@H](C)CC)[C@@H](C)CC)C(=O)N[C@@H](C(C)C)C(=O)NCC(=O)N[C@@H](CC(=O)O)C(=O)N1)C(=O)N[C@@H](CC(=O)O)C(=O)N[C@@H](CCCNC(=N)N)C(=O)N[C@@H](CO)C(=O)N[C@H](C(=O)N[C@@H](Cc1c[nH]c2ccccc12)C(N)=O)[C@@H](C)CC [BID-MM] |
| 1440 ± 50 | 390 ± 80 | 57 ± 16 | 0.01 | 180000 | CCCC[C@H](NC(=O)[C@H](CO)NC(=O)[C@H](CC(=O)O)NC(=O)CNC(=O)[C@@H](NC(=O)[C@H](CCC(N)=O)NC(=O)[C@H](C)NC(=O)[C@H](CC(C)C)NC(=O)[C@H](Cc1c[nH]cn1)NC(=O)[C@H](CCCNC(=N)N)NC(=O)[C@H](C)NC(=O)[C@@H](NC(=O)[C@H](CC(N)=O)NC(=O)[C@H](CCCNC(=N)N)NC(=O)[C@@H](NC(=O)[C@@H](NC(=O)[C@H](CC(=O)O)NC(=O)[C@H](CCC(=O)O)NC(C)=O)[C@@H](C)CC)[C@@H](C)CC)[C@@H](C)CC)C(C)C)C(=O)N[C@@H](CC(=O)O)C(=O)N[C@@H](CCCNC(=N)N)C(=O)N[C@@H](CO)C(=O)N[C@H](C(=O)N[C@@H](Cc1c[nH]c2ccccc12)C(N)=O)[C@@H](C)CC [BID-WT, reference compound] (Ac-EDIIRNIARHLAQVGDS[Nle]DRSIW-NH2) |
